Series [1] deals with calcifications. The series can be described thus: In vivo whole body fluorescence, 2D mode (FMT instrument). Set-up: species or system DBA/2 mice. As to conditions: standard sensitivity settings. The protocol:
(§1) We used the FMT™ 2500 instrument from VisEn Medical Inc. (Bedford, MA). Mice were anesthetized with Isofluran (1.5% air 2L/min), depilated in the scanning area and a background measurement was taken for both wavelengths (680 nm and 750 nm). After this procedure the animals received both OsteoSense 750® (2 nmol in a volume of 150 µl) and Fetuin-A Alexa 680 (50 µl of a 7mg/ml solution) by intraperitoneal injection. 24 h after this application, the mice were analyzed in the FMT again and the fluorescence intensity was detected. Reconstruction of the data was performed by VisEn software.

The test system of series [2] is calcifications. Nature of the series: Combined fluorescence molecular tomography and micro computed tomography (CT-FMT fusion). Type of series: in vivo, mice. The protocol:
A dual energy µCT for small animals (TomoScope DUO, CT-Imaging, Erlangen, Germany) was used for anatomical image acquisition. The two electron tubes were both run at energies of 65KV. Each flat panel detector acquired 720 projections at 5 fps, containing 1032x1012 pixels with a pixel size of (50µm)^2. A full rotation was performed and the scan time was 90 seconds per subscan covering 30.8 mm in the transversal direction. Two subscans were acquired to cover almost the entire mouse body. A Feldkamp algorithm was used for reconstruction with isotropic voxel size of […], dimensions of 600x500x440, field of view of 42mm x 35mm x 30.8mm and a soft reconstruction kernel (T10).
The FMT probe was injected 24 hours before imaging through i.v. tail vein injection. Hair was removed with depilatory crème around the region of interest. For preparations and imaging, mice were anesthetized with Isofluran. […]
The reconstructed 3D data sets from CT and FMT were fused by computing a rigid body transformation minimizing the residual error between fiducial markers detected in both modalities. […] The average number of markers that were found in both modalities was 12 with average fiducial error of 0.174mm, which was evaluated on a representative set of 31 scans. […]

Series [3] deals with calcifications. The series can be described thus: In vivo 3D fluorescence molecular tomography of whole mice. The arrangement: species or system DBA/2 mice. The protocol:
as §1

The test system of series [4] is calcifications. The series can be described thus: Explanted organ fluorescence, 2D reflectance imaging and ROI quantification after co-injection of both probes. Type of series: in vivo, DBA/2 mice.
Another series deals with calcified lesions. The series can be described thus: Histology: staining of calcified lesions with unlabelled or Alexa Fluor 488 labelled fetuin-A (injected or applied to sections). Format: in vivo, fetuin-A deficient mice. On the procedure:
The mice were injected with unlabelled or Alexa Fluor® 488 coupled fetuin-A. They received 100 µl / 25 g body weight of a 7 mg/ml solution. Five hours after injection the mice were killed, organs were harvested, embedded in TissueTek (Sakura), and snap-frozen and in liquid nitrogen. Serial cryotome sections were prepared and fixed in ice cold acetone. For general histology hematoxilin/eosin staining and von-Kossa staining were performed.
To localize unlabelled fetuin-A, sections were incubated for one hour with a homemade polyclonal rabbit anti bovine fetuin-A antibody followed by secondary goat anti rabbit Alexa Fluor® 546 antibody and DAPI staining. To localize calcified lesions, sections were incubated with Alexa Fluor® 488-coupled fetuin-A for one hour and then were counterstained with DAPI. Sections of organs from mice injected with Alexa Fluor® 488 labelled Fetuin A were stained with DAPI only.

For “Fetuin-A Alexa 680: Fetuin-A monomer (Sigma Aldrich, F2379), purified by gel chromatography, coupled to Alexa Fluor® 680 dye”, the “whole body 2D scan signal” value is on record as “no signal” in the series with calcifications [1] (D2, Fetuin-A+/+ wildtype mice) and “strong signals” in the series on calcifications [1] (D2, Fetuin-A-/- mice). In addition, the “CT-FMT fused signal localization” value was “low signal in the digestive tract” in the series on calcifications [2] (D2, fetuin-A+/+ wildtype mice); “faint signal in the neck and the thorax, but a higher one in the kidney and the digestive tract” in the series with calcifications [2] (D2, fetuin-A-/- mice). Besides, the “3D fluorescence tomography staining pattern” value in the series on calcifications [3] (DBA/2 wildtype mouse (Fig. 6A, B)) was “outlined the gut, kidneys and the brown fat pad in the neck”. Besides, in the series with calcifications [3] (digestive tract), the “excretion route (staining of the digestive tract, signal associated with faeces)” value is “at least partially excreted through this route”. Besides, the “3D fluorescence tomography signal” value with calcifications [3] (fetuin-A deficient (knockout) mouse (Fig. 6D)) is “highly detected in the neck and in the left kidney but also in the gut”. Also, in the series with calcifications [3] (wildtype and knockout animal (Fig. 6A, C), higher in wildtype than in knockout), the “3D fluorescence signal strength” value is recorded as “much higher”. The “combined signal from regions of interest (ROI), kidneys” value with calcifications [4] (Fetuin-A-/- mice, kidneys) turned out to be 6740 counts/energy; in the series on calcifications [4] (wildtype mice, kidneys), 1025 counts/energy. For the same molecule, the “combined signal from regions of interest (ROI), lungs” value is listed as 3303 counts/energy in the series with calcifications [4] (Fetuin-A-/- mice, lungs) and 1816 counts/energy with calcifications [4] (wildtype mice, lungs). Further, the “staining of heart (explanted organ)” value in the series with calcifications [4] (fetuin-A deficient mice) is “stained weakly”. Also, the “staining of brown fat, lungs and kidneys (explanted organs)” value in the series on calcifications [4] (fetuin-A deficient mice, heavily calcified organs) is “strongly stained”. Also, the “tissue accumulation, Fetuin-A-/- versus wildtype, kidneys” value with calcifications [4] (kidneys) is on record as “increased over six-fold”. In addition, the “tissue accumulation, Fetuin-A-/- versus wildtype, lungs” value in the series with calcifications [4] (lungs) is reported as “almost doubled”. The “signal (2D reflectance images)” value in the series with calcifications [4] (tissues (brown fat, heart, lung, kidneys) from wildtype mice, OsteoSense at both 1-fold and 10-fold sensitivity setting) amounted to 0.25 Count/Energy.

B1: Alexa Fluor® 488-labelled fetuin-A: Fetuin-A monomer (Sigma Aldrich, F2379), purified by gel chromatography, coupled to Alexa Fluor® 488 dye (conjugate, UniProt P12763 19-359, looked up)
Alpha-2-HS-glycoprotein: IPLDPVAGYKEPACDDPDTEQAALAAVDYINKHLPRGYKHTLNQIDSVKVWPRRPTGEVYDIEIDTLETTCHVLDPTPLANCSVRQQTQHAVEGDCDIHVLKQDGQFSVLFTKCDSSPDSAEDVRKLCPDCPLLAPLNDSRVVHAVEVALATFNAESNGSYLQLVEISRAQFVPLPVSVSVEFAVAATDCIAKEVVDPTKCNLLAEKQYGFCKGSVIQKALGGEDVRVTCTLFQTQPVIPQPQPDGAEAEAPSAVPDAAGPTPSAAGPPVASVVVGPSVVAVPLPLHRAHYDLRHTFSGVASVESSSGEAFHVGKTPIVGQPSIPGGPVRLCPGRIRYFKI
modifications: Alexa Fluor 488 dye
notes: Fetuin-A monomer (Sigma Aldrich, F2379), purified by gel chromatography, coupled to Alexa Fluor® 488 dye
Consider B1, for which the “lesion size detected compared with established histology methods (H/E, von Kossa)” value in the series with calcified lesions (Fig. 1, injected into live animals or applied to histological sections) is given as “also detected much smaller lesions”. Also, in the series with calcified lesions (Fig. 2, fetuin-A deficient mouse, compared with Hematoxylin-Eosin and von Kossa), the “detection of lesions in serial sections of the heart” value is “enabled the detection of an additional very small lesion”. Besides, in the series with calcified lesions (fetuin-A deficient mice, both in vivo (injected) and on sections), the “staining of calcified lesions” value was “readily stained calcified lesions”.
